Columns and labels:
Settings in all cases: 48 h
[1] = system: CU-ACC1; test: AC50 viability; higher = less potent
Procedure, shortened: (§1)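 Library compounds were tested at 11 concentrations against three adrenocortical carcinoma cell lines in 1,536-well plates. CellTiter-Glo luminescence was read after 48 h and normalised per plate to vehicle and empty-well controls. Only inhibitory or non-responding curve classes from fitted concentration-response curves contributed AC50 and area under the curve.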

[2] = system: NCI-H295R; test: AC50 viability; higher = less potent
Procedure, shortened: as §1

[3] = system: CU-ACC1; test: area under concentration-response curve (viability) (AUC (a.u.)); higher = less active
Procedure, shortened: as §1

[4] = system: CU-ACC2; test: as above
Procedure, shortened: as §1

[5] = system: NCI-H295R; test: as above
Procedure, shortened: as §1

SMILES	AC50 viability [1]	AC50 viability [2]	area under concentration-response curve [3]	area under concentration-response curve [4]	area under concentration-response curve [5]
CCC[S+](=O)([O-])c1nc(NC2CC2)cc(-c2ccc3c(ccn3C3CC(C)(C)NC(C)(C)C3)c2)n1	3.93 µM	3.12 µM	490	580	530
CC(C)(C)c1[nH]cnc1/C=c1\[nH]c(=O)/c(=C/c2ccccc2)[nH]c1=O	18.6 µM	0.0372 µM	490	398	434
N#Cc1ccc(-c2c(-c3nnc[nH]3)sc(N3CCOCC3)c2C#N)c(F)c1	7.42 µM	4.68 µM	465	568	478
O=[S+]([O-])(Nc1ccc(-c2cccnc2)c2cccnc12)c1cccc(C(F)(F)F)c1	4.68 µM	4.17 µM	456	595	486
OC(c1cc(C(F)(F)F)nc2c(C(F)(F)F)cccc12)C1CCCCN1 (stereo not given)	23.5 µM	20.9 µM	501	619	527
COC1(c2sc3c(N4CCOCC4)nc(-c4cnc(N)nc4)nc3c2C)COC1	0.525 µM	0.372 µM	287	374	322
Cc1ccc(NC(=O)c2ccc(CN3CCNCC3)cc2)cc1Nc1nccc(-c2cccnc2)n1	6.61 µM	26.3 µM	496	600	518
O=C(CCCCCCC(=O)Nc1cccnc1)NO	9.34 µM	13.2 µM	489	589	533
COc1ncc(Nc2ncc([C@H](C)N3CCN([S+](C)(=O)[O-])CC3)cc2-c2nc(C)nc(N)n2)cc1F	1.32 µM	0.934 µM	387	473	392
Cc1cccc(-c2[nH]c(C(C)(C)C)nc2-c2ccc3c(c2)OCO3)n1	5.25 µM	11.8 µM	426	595	481
O=C(Nc1cccnc1)N1CCC(Cc2cccc(Oc3ccc(C(F)(F)F)cn3)c2)CC1	5.25 µM	18.6 µM	406	559	500
C[C@@H](Oc1ccc2[nH]nc(/C=C/c3cnn(CCO)c3)c2c1)c1c(Cl)cncc1Cl	16.6 µM	14.8 µM	481	519	473
O=C1NC(=O)[C@@H](c2c[nH]c3ccccc23)[C@H]1c1cn2c3c(cccc13)CCC2	20.9 µM	0.59 µM	494	611	504
Cc1cnc(Nc2ccc(N3CCN(C)CC3)cc2)nc1Nc1cccc([S+](=O)([O-])NC(C)(C)C)c1	14.8 µM	9.34 µM	466	529	421
COc1cc2ncnc(Nc3cccc(Cl)c3)c2cc1OC	13.2 µM	20.9 µM	558	610	562
C[S+](=O)([O-])N1CCc2c(-c3cnc(N)nc3)nc(N3CCOCC3)nc21	1.18 µM	0.417 µM	403	345	389
CCc1cncnc1N1CCN(Cc2nc3cc(C(F)(F)F)ccc3[nH]2)CC1	20.9 µM	20.9 µM	438	590	502
FC(F)c1nc2ccccc2n1-c1nc(N2CCOCC2)nc(N2CCOCC2)n1	0.59 µM	0.934 µM	413	487	399
NC(=O)c1cccc2nc(-c3ccc([C@H]4CCCN4)cc3F)[nH]c12	8.33 µM	7.42 µM	453	576	464
COc1cc(OC2CCN(C)CC2)ccc1Nc1ncc2c(n1)n(C1CCCC1)c(=O)n2C	26.3 µM	23.5 µM	447	619	528
CC(C)(O)C[S+](=O)([O-])Nc1ccc2c(c1)CCN(C(=O)COc1cccnc1)C2	0.295 µM	1.05 µM	334	390	483
CC(C)C[C@H](NC(=O)[C@H](Cc1ccccc1)NC(=O)c1cnccn1)B(O)O	0.0372 µM	0.0263 µM	290	327	345
CCNC(=O)C[C@@H]1\N=C(C2=CC=C(Cl)C=C2)/C3=C(C=CC(=C3)OC)[N]4C(=NN=C14)C	13.2 µM	8.33 µM	423	500	457
Cc1ccc(C(C)(O)c2nc3ccccc3s2)c(C)c1 (stereo not given)	8.33 µM	16.6 µM	421	511	464
O=C1Nc2ccc(Cl)cc2[C@@](C#CC2CC2)(C(F)(F)F)O1	20.9 µM	20.9 µM	490	589	468
COc1ccc(CCN(C)CCCC(C#N)(c2ccc(OC)c(OC)c2)C(C)C)cc1OC (stereo not given)	29.5 µM	23.5 µM	397	490	397
O=C([O-])C[C@H](O)C[C@H](O)/C=C/c1c(C2CC2)nc2ccccc2c1-c1ccc(F)cc1	4.68 µM	10.5 µM	394	478	464
CC(=O)Nc1ccc(C(=O)Nc2ccccc2N)cc1	7.42 µM	18.6 µM	413	408	445
CN1CCN(c2ccc3nc(-c4cc(C(C)(C)C)c(OCCCC(=O)NCCCN=[N+]=[N-])c(C(C)(C)C)c4)[nH]c3c2)CC1	7.42 µM	7.42 µM	462	566	508

Reference: the supplement of paper PMC10949913
